# Source: US11279726B2, “Norbornene-based amphipathic compound and utilization thereof” (Industry-University Cooperation Foundation Hanyang …, priority 2017, dated 2022)
# “Also recorded” adds a separate entry of the source.
# Assays:
# [1] = target: T1, human β2 adrenergic receptor (β2AR) (Homo sapiens, UniProt P07550); test: β2AR stability: [3H]-DHA ligand binding activity of solubilized receptor; settings: 0.2% amphiphile, room temperature, 3 days (7 days for receptor extracted with the amphiphile)
# T1 construct: made in house
# Description: An experiment of measuring the stability of human β2 adrenergic receptor (β2AR) and G-protein-coupled receptor (GPCR) for NBMs was carried out. That is, the receptor was extracted from the cell membranes by DDM and purified in the same amphiphilic compound. The DDM-purified receptor was diluted in individual DDM- or NBM-containing buffers to adjust the final compound concentration to be CMC+0.2 wt %. The receptor stability was assessed by measuring ligand binding activity using [3H]-DHA.
# To measure long-term stability of human β2AR with NBMs (D-NBM-C11 and X-NBM-C11) showing an excellent ligand binding activity of the receptor in the previous experiment, a radio-labeled ligand binding experiment was performed by the following method. β2AR was purified using 0.1% DDM (D. M. Rosenbaum et al., Science, 2007, 318, 1266-1273), and finally concentrated to approximately 10 mg/ml (approximately 200 μM). A main binding mixture containing 10 nM [^3H]-DHA supplemented with 0.5 mg/ml BSA was prepared in 0.2% amphiphilic compound (DDM or NBMs (D-NBM-C11 and X-NBM-C11)) using β2AR purified with DDM. The receptor purified with DDM or NBMs was incubated with 10 nM [^3H]-DHA at room temperature for 30 minutes. The mixture was loaded onto a G-50 column, the fractions were collected in a 1 ml binding buffer (20 mM HEPES pH 7.5, 100 mM NaCl, containing 0.5 mg/ml BSA and 20× CMC individual amphiphilic compounds). In addition, each fraction was supplemented with a 15 ml scintillation fluid, and receptor-bound [^3H]-DHA was measured using a scintillation counter (Beckman) at regular intervals for 3 days. The binding capacity of [^3H]-DHA was shown as a bar chart (FIG. 11a).
# In addition, β2AR was extracted from the membrane using 1.0 wt % of DDM or X-NBM-C11 and purified at 0.2 wt % for the same individual amphiphilic compounds. Structural stability of the receptor was assessed by ligand binding activity, which was measured with sample aliquots at regular intervals during 7-day incubation at room temperature. Each experiment was carried out in triplicate (FIG. 12b).
# [2] = target: T2, uric acid-xanthine/H+ symporter (UapA) (Emericella nidulans, UniProt Q07307, G411V); test: UapA extraction and thermal stability by fluorescence size exclusion chromatography (FSEC); set-up: species or system Aspergillus nidulans; settings: 1.0 wt % amphiphile; for Retention of monodispersed UapA-GFP peak after heating (FSEC): 10 minutes at 40° C., compared with DDM
# T2 construct: made in house; host or cells: Saccharomyces cerevisiae FGY217
# Description: An experiment for measuring the structural stability of uric acid-xanthine/H+ symporter (UapA) isolated from Aspergillus nidulans using NBMs was performed. The structural stability of UapA was evaluated using […].
# Specifically, UapAG411VΔ1-11 (hereinafter, referred to as “UapA”) was expressed as GFP fusion in Saccharomyces cerevisiae FGY217 strain and isolated in a sample buffer (20 mM Tris (pH 7.5), 150 mM NaCl, 0.03% DDM, 0.6 mM xanthine) according to the method described in the literature written by J. Leung et al. (Mol. Membr. Biol. 2013, 30, 32-42). Membranes containing UapA were resuspended in PBS, 10 mM imidazole pH 8.0, 150 mM NaCl, 10% glycerol, and the protein concentration was measured. The membranes were adjusted to a concentration of 1 mg·ml^−1 and 1 ml aliquots were individually incubated with DDM or NBMs at a final amphiphilic material concentration of 1.0 wt % for 10 minutes at 40° C. 100 μl aliquots were removed from each tube, and a fluorescence reading was taken for each sample before and after ultracentrifugation at 150,000 g for 10 minutes to remove insoluble material. The remaining soluble fraction for each condition was submitted to fluorescent size exclusion chromatography (FSEC) using a Superose 6 column (GE Healthcare) equilibrated with DDM.
# [3] = system: leucine transporter (LeuT); test: LeuT stability: [3H]-Leu substrate binding by scintillation proximity assay (SPA); set-up: species or system Aquifex aeolicus; settings: t=12 day, CMC+0.04 wt %, room temperature
# Description: An experiment for measuring the stability of LeuT protein with NBMs was performed. Concentrations of individual amphiphilic compounds were (a) CMC+0.04 wt % and (b) CMC+0.2 wt %, and the stability of the LeuT protein was evaluated by measuring a LeuT substrate binding activity using [3H]-Leu via scintillation proximity assay (SPA). The measurement was performed at regular intervals during 12-day incubation at room temperature. Specifically, a wild-type leucine transporter (LeuT) derived from thermophilic bacteria Aquifex aeolicus was purified by the method described previously (G. Deckert et al., Nature 1998, 392, 353-358). LeuT was expressed in E. coli C41 (DE3) transformed with pET16b encoding C-terminally 8× His-tagged transporter (the expression plasmid was provided by Dr E. Gouaux, Vollum Institute, Portland, Oreg., USA). […] Protein samples were stored for 12 days at room temperature, and centrifuged at predetermined points of time, the substrate ([3H]-leucine)-binding activity of the transporter was determined via SPA by taking advantage of protein properties. […] Total [3H]-leucine binding for the respective samples was measured using a MicroBeta liquid scintillation counter (Perkin Elmer).
# [4] = Hydrodynamic radius / size distribution of micelles by dynamic light scattering (DLS); assay type: physicochemical; settings: for Rh (nm), hydrodynamic radius of micelles: 1.0 wt % agent; for Micelle size change with temperature: temperature-dependent (FIGS. 7a, 7b)
# Description: A method for measuring the radius of a micelle is not particularly limited, and a method well known in the art may be used, and for example, the radius thereof may be measured using a dynamic light scattering (DLS) experiment.
# To identify the characteristics of NBMs synthesized in Preparation Example 1 to 6 according to the synthetic method of Example 1, molecular weights (MWs) of NBMs, critical micelle concentrations (CMCs) and hydrodynamic radii (Rh) of the micelles were measured.
# Specifically, the critical micelle concentrations (CMCs) were measured by fluorescent staining with diphenylhexatriene (DPH), and the hydrodynamic radii (Rh) of the micelle formed with individual agents (1.0 wt %) were measured by dynamic light scattering (DLS).
# T1 sequence (P07550 whole entry): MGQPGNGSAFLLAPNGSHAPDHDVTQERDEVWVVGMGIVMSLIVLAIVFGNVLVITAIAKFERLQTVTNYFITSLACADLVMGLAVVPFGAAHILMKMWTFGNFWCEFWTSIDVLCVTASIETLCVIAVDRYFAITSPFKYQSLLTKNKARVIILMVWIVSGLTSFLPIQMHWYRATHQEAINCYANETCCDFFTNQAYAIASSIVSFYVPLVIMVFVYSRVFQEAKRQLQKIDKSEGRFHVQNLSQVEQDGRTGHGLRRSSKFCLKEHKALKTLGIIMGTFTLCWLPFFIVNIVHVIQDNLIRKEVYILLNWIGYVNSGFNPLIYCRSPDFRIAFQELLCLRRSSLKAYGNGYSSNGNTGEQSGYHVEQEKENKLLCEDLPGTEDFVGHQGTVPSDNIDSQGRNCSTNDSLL
# T2 sequence (Q07307 12-574 G411V): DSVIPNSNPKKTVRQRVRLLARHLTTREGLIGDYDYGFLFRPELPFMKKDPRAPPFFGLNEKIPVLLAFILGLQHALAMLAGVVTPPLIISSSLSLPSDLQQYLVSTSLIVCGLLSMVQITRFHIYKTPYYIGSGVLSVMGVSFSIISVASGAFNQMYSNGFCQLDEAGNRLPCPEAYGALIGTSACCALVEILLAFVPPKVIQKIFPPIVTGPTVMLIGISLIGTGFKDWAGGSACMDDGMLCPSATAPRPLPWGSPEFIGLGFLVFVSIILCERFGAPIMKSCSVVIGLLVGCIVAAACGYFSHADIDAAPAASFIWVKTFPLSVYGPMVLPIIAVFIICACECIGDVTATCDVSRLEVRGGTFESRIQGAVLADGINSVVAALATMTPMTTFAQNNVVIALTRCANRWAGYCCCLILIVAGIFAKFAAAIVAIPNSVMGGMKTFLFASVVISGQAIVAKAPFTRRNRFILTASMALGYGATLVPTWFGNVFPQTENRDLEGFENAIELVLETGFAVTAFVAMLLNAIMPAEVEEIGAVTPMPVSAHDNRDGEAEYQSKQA
Structure (SMILES),Long-term ligand binding activity of β2AR ([3H]-DHA) [1],Retention of monodispersed UapA-GFP peak after heating (FSEC) [2],LeuT substrate binding activity at the end of incubation [3],"Rh (nm), hydrodynamic radius of micelles [4]",Micelle size change with temperature [4],UapA extraction efficiency from the cell membrane [2]
CCCCCCCCCCCOCC1C2CC([C@@H]1COCCCCCCCCCCC)[C@H](O[C@@H]1OC(CO)[C@@H](O[C@H]3OC(CO)[C@@H](O)C(O)C3O)C(O)C1O)C2O[C@@H]1OC(CO)[C@@H](O[C@H]2OC(CO)[C@@H](O)C(O)C2O)C(O)C1O (stereo partly drawn) [D-NBM-C11],well retained,a little better than DDM,a little less than the initial activity of LeuT solubilized in DDM,3.7 ± 0.05 nm,not influenced by a temperature change,
CCCCCCCCCCCOCC1C2CC([C@H]1COCCCCCCCCCCC)[C@H](O[C@@H]1OC(CO)[C@@H](O[C@H]3OC(CO)[C@@H](O)C(O)C3O)C(O)C1O)C2O[C@@H]1OC(CO)[C@@H](O[C@H]2OC(CO)[C@@H](O)C(O)C2O)C(O)C1O (some centres unmarked) [X-NBM-C11],well retained; also recorded: highest ligand binding retention property,substantially better than DDM,a little less than the initial activity of LeuT solubilized in DDM,17.3 ± 0.10 nm,changed according to a temperature,almost quantitatively extract
